Measured values: PubChem BioAssay AID248 (DTP/NCI, 2004)
Where “and” joins values, the source holds several entries; their conditions need not be identical. Equal entries are not always repeated. Toxic doses and inconclusive results are not listed.

System: L1210 leukemia ip in BDF1 mice, survival T/C
Assay: NCI In Vivo Anticancer Drug Screen. Data for tumor model L1210 Leukemia (intraperitoneal) in B6D2F1 (BDF1) mice
Conditions: endpoint: mean survival time, higher = longer survival
In short: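 Tumor was transplanted into mice, which were then dosed with test compound or vehicle alone. Survival was recorded for each group, and the treated figure was expressed relative to the control figure.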

[1] = dose: 100.0 mg/kg/injection, schedule: Q04DX003 (ip), vehicle: saline
[2] = dose: 200.0 mg/kg/injection, schedule: Q04DX003 (ip), vehicle: saline
[3] = dose: 100.0 mg/kg/injection, schedule: Q01DX001 (ip), vehicle: saline
[4] = dose: 200.0 mg/kg/injection, schedule: Q01DX001 (ip), vehicle: saline
[5] = dose: 400.0 mg/kg/injection, schedule: Q01DX001 (ip), vehicle: saline
[6] = dose: 100.0 mg/kg/injection, schedule: Q01DX001 (ip), vehicle: saline with Tween-80
[7] = dose: 200.0 mg/kg/injection, schedule: Q01DX001 (ip), vehicle: saline with Tween-80
[8] = dose: 100.0 mg/kg/injection, schedule: Q04DX003 (ip), vehicle: saline with Tween-80
[9] = dose: 200.0 mg/kg/injection, schedule: Q04DX003 (ip), vehicle: saline with Tween-80
[10] = dose: 400.0 mg/kg/injection, schedule: Q04DX003 (ip), vehicle: saline with Tween-80
[11] = dose: 100.0 mg/kg/injection, schedule: Q04DX002 (ip), vehicle: saline with Tween-80
[12] = dose: 200.0 mg/kg/injection, schedule: Q04DX002 (ip), vehicle: saline with Tween-80
[13] = dose: 400.0 mg/kg/injection, schedule: Q04DX002 (ip), vehicle: saline with Tween-80
[14] = dose: 100.0 mg/kg/injection, schedule: Q04DX003 (ip), vehicle: Klucel (hydroxypropylcellulose) (HPC)
[15] = dose: 200.0 mg/kg/injection, schedule: Q04DX003 (ip), vehicle: Klucel (hydroxypropylcellulose) (HPC)
[16] = dose: 400.0 mg/kg/injection, schedule: Q04DX003 (ip), vehicle: Klucel (hydroxypropylcellulose) (HPC)

SMILES: NC(=O)C(N)=O
- T/C (dose: 100.0 mg/kg/injection, schedule: Q01DX009 (ip), vehicle: saline): 93 % of control
- T/C [1]: 106 % of control
- T/C (dose: 200.0 mg/kg/injection, schedule: Q01DX009 (ip), vehicle: saline): 103 % of control
- T/C [2]: 101 % of control
- T/C (dose: 400.0 mg/kg/injection, schedule: Q01DX009 (ip), vehicle: saline): 101 % of control
- T/C (dose: 400.0 mg/kg/injection, schedule: Q04DX003 (ip), vehicle: saline): 97 % of control

SMILES: Oc1ccccc1C1OCCO1
- T/C [3]: 107 % of control
- T/C [4]: 95 % of control
- T/C [5]: 95 % of control

SMILES: NC(=O)CCCCc1ccccc1
- T/C (dose: 50.0 mg/kg/injection, schedule: Q01DX001 (ip), vehicle: saline with Tween-80): 93 % of control
- T/C [6]: 98 % of control
- T/C [7]: 90 % of control

SMILES: CSC(N)=NC1CCCCC1
- T/C (dose: 6.25 mg/kg/injection, schedule: Q01DX009 (ip), vehicle: saline): 103 % of control
- T/C (dose: 12.5 mg/kg/injection, schedule: Q01DX009 (ip), vehicle: saline): 107 % of control
- T/C (dose: 12.5 mg/kg/injection, schedule: Q04DX002 (ip), vehicle: saline): 109 % of control
- T/C (dose: 25.0 mg/kg/injection, schedule: Q01DX009 (ip), vehicle: saline): 100 % of control
- T/C (dose: 25.0 mg/kg/injection, schedule: Q04DX002 (ip), vehicle: saline): 105 % of control

SMILES: Cc1ccccc1C1(O)c2ccccc2-c2ccccc21
- T/C [8]: 98 % of control
- T/C [9]: 96 % of control
- T/C [10]: 96 % of control

SMILES: CCCCCCCCCCCCOP(=O)(OCC)OCC
- T/C [11]: 88 % of control
- T/C [12]: 88 % of control
- T/C [13]: 88 % of control

SMILES: Cc1cc(Cl)sc1Cl
- T/C (dose: 100.0 mg/kg/injection, schedule: Q01DX001 (ip), vehicle: carboxymethylcellulose (CMC)): 98 % of control
- T/C (dose: 200.0 mg/kg/injection, schedule: Q01DX001 (ip), vehicle: carboxymethylcellulose (CMC)): 93 % of control
- T/C (dose: 400.0 mg/kg/injection, schedule: Q01DX001 (ip), vehicle: carboxymethylcellulose (CMC)): 92 % of control

SMILES: CC(C)(CO)N=Cc1ccc(Cl)cc1Cl
- T/C [3]: 93 % of control
- T/C [4]: 102 % of control
- T/C [5]: 102 % of control

SMILES: CCC(C)C(C(=O)OCCN(C)C)c1ccccc1 (configuration not stated)
- T/C [8]: 98 % of control
- T/C [9]: 92 % of control

SMILES: CCCCNC(=S)N/N=C/c1ccccn1
- T/C [14]: 90 % of control
- T/C [15]: 97 % of control

SMILES: Cc1cc2nc(SCC(=O)O)[nH]c2cc1C
- T/C (dose: 100.0 mg/kg/injection, schedule: Q01DX009 (ip), vehicle: gum acacia): 96 % of control
- T/C (dose: 100.0 mg/kg/injection, schedule: Q04DX003 (ip), vehicle: gum acacia): 99 % of control
- T/C (dose: 200.0 mg/kg/injection, schedule: Q01DX009 (ip), vehicle: gum acacia): 89 % of control
- T/C (dose: 200.0 mg/kg/injection, schedule: Q04DX003 (ip), vehicle: gum acacia): 103 % of control
- T/C (dose: 400.0 mg/kg/injection, schedule: Q04DX003 (ip), vehicle: gum acacia): 93 % of control

SMILES: CC(=O)OCc1ccc(Cl)cc1Cl
- T/C [8]: 97 % of control
- T/C [9]: 97 % of control
- T/C [10]: 101 % of control

SMILES: CN(CCN(C)C(=S)S)C(=S)S
- T/C (dose: 100.0 mg/kg/injection, schedule: Q01DX002 (ip), vehicle: saline): 99 % of control
- T/C (dose: 200.0 mg/kg/injection, schedule: Q01DX002 (ip), vehicle: saline): 99 % of control
- T/C (dose: 400.0 mg/kg/injection, schedule: Q01DX002 (ip), vehicle: saline): 105 % of control

SMILES: CC1(C)N=C(N)N=C(N)N1c1ccc(C(=O)c2ccccc2)cc1
- T/C (dose: 25.0 mg/kg/injection, schedule: Q04DX003 (ip), vehicle: saline): 96 % of control
- T/C (dose: 50.0 mg/kg/injection, schedule: Q04DX003 (ip), vehicle: saline): 89 % of control

SMILES: Cc1cc(=O)c2cc(N(C)C)ccc2[nH]1
- T/C (dose: 100.0 mg/kg/injection, schedule: Q01DX009 (ip), vehicle: water): 100 % of control
- T/C (dose: 100.0 mg/kg/injection, schedule: Q04DX003 (ip), vehicle: water): 115 % of control
- T/C (dose: 200.0 mg/kg/injection, schedule: Q01DX009 (ip), vehicle: water): 105 % of control
- T/C (dose: 200.0 mg/kg/injection, schedule: Q04DX003 (ip), vehicle: water): 116 % of control
- T/C (dose: 400.0 mg/kg/injection, schedule: Q01DX009 (ip), vehicle: water): 104 % of control
- T/C (dose: 400.0 mg/kg/injection, schedule: Q04DX003 (ip), vehicle: water): 116 % of control

SMILES: COc1cc2c(ccc3c4cc(OC)c(OC)cc4c[n+](C)c23)cc1O
- T/C (dose: 80.0 mg/kg/injection, schedule: Q01DX009 (ip), vehicle: saline): 159 % of control
- T/C [14]: 120 % of control
- T/C (dose: 320.0 mg/kg/injection, schedule: Q01DX009 (ip), vehicle: saline): 161 % of control
- T/C [16]: 120 % of control

SMILES: CCN(CC)C(=O)OCCCN(C)C
- T/C (dose: 50.0 mg/kg/injection, schedule: Q01DX009 (ip), vehicle: Klucel (hydroxypropylcellulose) (HPC)): 96 % of control
- T/C [1]: 105 % of control
- T/C [2]: 105 % of control

SMILES: CC(=O)N1C=C(Br)c2ccccc2C1C1c2ccccc2C(Br)=CN1C(C)=O (configuration not stated)
- T/C [8]: 91 % of control
- T/C [9]: 87 % of control
- T/C [10]: 91 % of control

SMILES: CC1=C(Br)C(=O)C(c2c(C)c(Br)c(C)c([N+](=O)[O-])c2C)=C(Br)C1=O
- T/C (dose: 100.0 mg/kg/injection, schedule: Q01DX001 (ip), vehicle: Klucel (hydroxypropylcellulose) (HPC)): 98 % of control
- T/C [14]: 102 % of control
- T/C (dose: 200.0 mg/kg/injection, schedule: Q01DX001 (ip), vehicle: Klucel (hydroxypropylcellulose) (HPC)): 93 % of control
- T/C [15]: 102 % of control
- T/C (dose: 400.0 mg/kg/injection, schedule: Q01DX001 (ip), vehicle: Klucel (hydroxypropylcellulose) (HPC)): 106 % of control
- T/C [16]: 91 % of control

SMILES: COC1=CC23CCNC(Cc4ccc(OC)c(O)c42)C3=CC1 (configuration not stated)
- T/C (dose: 10.0 mg/kg/injection, schedule: Q01DX001 (ip), vehicle: saline): 101 % of control

SMILES: NC(N)=N/N=C/c1cccs1
- T/C (dose: 15.0 mg/kg/injection, schedule: Q01DX Z (oral), vehicle: saline): 90 % of control
- T/C (dose: 30.0 mg/kg/injection, schedule: Q01DX Z (ip), vehicle: saline): 90 % of control
- T/C (dose: 30.0 mg/kg/injection, schedule: Q01DX Z (oral), vehicle: saline): 92 % of control
- T/C (dose: 60.0 mg/kg/injection, schedule: Q01DX Z (oral), vehicle: saline): 92 % of control

SMILES: O=C(O)C1C2OC(C(Cl)C2Cl)C1C(=O)O (configuration not stated)
- T/C (dose: 100.0 mg/kg/injection, schedule: Q04DX002 (ip), vehicle: Klucel (hydroxypropylcellulose) (HPC)): 98 % of control
- T/C (dose: 200.0 mg/kg/injection, schedule: Q04DX002 (ip), vehicle: Klucel (hydroxypropylcellulose) (HPC)): 103 % of control
- T/C (dose: 400.0 mg/kg/injection, schedule: Q04DX002 (ip), vehicle: Klucel (hydroxypropylcellulose) (HPC)): 95 % of control

SMILES: CN(C)c1ccc(/C=N/NC(=O)CCCCCCCCC(=O)N/N=C/c2ccc(N(C)C)cc2)cc1
- T/C (dose: 12.5 mg/kg/injection, schedule: Q01DX009 (ip), vehicle: saline with Tween-80): 101 % of control and 104 % of control
- T/C (dose: 25.0 mg/kg/injection, schedule: Q01DX009 (ip), vehicle: saline with Tween-80): 94 % of control and 97 % of control
- T/C (dose: 50.0 mg/kg/injection, schedule: Q04DX003 (ip), vehicle: saline with Tween-80): 98 % of control
- T/C [6]: 100 % of control
- T/C [11]: 101 % of control and 104 % of control
- T/C [8]: 93 % of control
- T/C [7]: 100 % of control
- T/C [12]: 101 % of control and 102 % of control
- T/C [13]: 108 % of control

SMILES: CCCCCCCCCC(=O)N1CCCN(C(=O)CCCCCCCCC)C1
- T/C (dose: 30.0 mg/kg/injection, schedule: Q01DX001 (ip), vehicle: saline): 102 % of control
- T/C [3]: 98 % of control
- T/C (dose: 300.0 mg/kg/injection, schedule: Q01DX001 (ip), vehicle: saline): 93 % of control

SMILES: O=[N+]([O-])c1ccc2[nH]ccc2c1
- T/C [3]: 98 % of control
- T/C [4]: 104 % of control
- T/C [5]: 102 % of control

SMILES: O=C1CC(c2ccccc2)C1(c1ccccc1)c1ccccc1 (configuration not stated)
- T/C [14]: 98 % of control
- T/C [15]: 101 % of control
- T/C [16]: 96 % of control

SMILES: NC1=NN(c2ccccc2)C(=O)/C1=C\c1ccccc1
- T/C (dose: 50.0 mg/kg/injection, schedule: Q01DX009 (ip), vehicle: saline with Tween-80): 102 % of control
- T/C (dose: 100.0 mg/kg/injection, schedule: Q01DX009 (ip), vehicle: saline with Tween-80): 98 % of control
- T/C (dose: 200.0 mg/kg/injection, schedule: Q01DX009 (ip), vehicle: saline with Tween-80): 91 % of control
